Source: the NIST ThermoML archive (doi:10.1016/j.fluid.2010.03.001)
± gives the expanded uncertainty stated by the source.

Experiments:
[1] = Liquid; for viscosity / mass density: 101.33 kPa; for viscosity: Concentric cylinders viscometry; for mass density: Vibrating tube method; for vapor or sublimation pressure: Ebulliometric method (Recirculating still)
[2] = xn = mol fraction of the nth substance listed; settings: 101 kPa, Liquid, x1 = 1; for viscosity: Concentric cylinders viscometry; for mass density: Vibrating tube method

Row | SMILES | viscosity ([1]; 293.15 K) [mPa·s] | viscosity ([1]; 298.15 K) [mPa·s] | mass density ([1]; 298.15 K) [kg/m3] | viscosity ([1]; 303.15 K) [mPa·s] | mass density ([1]; 303.15 K) [kg/m3] | viscosity ([1]; 313.15 K) [mPa·s] | mass density ([1]; 313.15 K) [kg/m3] | viscosity ([1]; 323.15 K) [mPa·s] | mass density ([1]; 323.15 K) [kg/m3] | viscosity ([1]; 333.15 K) [mPa·s] | mass density ([1]; 333.15 K) [kg/m3] | viscosity ([1]; 343.15 K) [mPa·s] | mass density ([1]; 343.15 K) [kg/m3] | viscosity ([1]; 353.15 K) [mPa·s] | mass density ([1]; 353.15 K) [kg/m3] | viscosity ([1]; 363.15 K) [mPa·s] | mass density ([1]; 363.15 K) [kg/m3] | viscosity ([1]; 373.15 K) [mPa·s] | mass density ([1]; 373.15 K) [kg/m3] | also measured
1 | C=C(C)[C@H]1CC=C(C)CC1 [(R)-1-methyl-4-(1-methylethenyl)cyclohexene] | 0.902 ± 0.014 | 0.89 ± 0.014 | 837.3 ± 1 | 0.793 ± 0.013 | 833.6 ± 1 | 0.702 ± 0.011 | 825.8 ± 1 | 0.628 ± 0.01 | 817.9 ± 1 | 0.566 ± 0.01 | 809.9 ± 0.9 | 0.5 ± 0.009 | 801.9 ± 0.9 | 0.452 ± 0.008 | 793.6 ± 0.9 | 0.413 ± 0.008 | 785.4 ± 0.9 | 0.382 ± 0.007 | 777.1 ± 0.9 | 
2 | CCCCCO [pentan-1-ol] | 4.03 ± 0.04 | 3.48 ± 0.04 | 810.7 ± 0.3 | 3.02 ± 0.03 | 807.2 ± 0.3 | 2.315 ± 0.024 | 799.8 ± 0.3 | 1.801 ± 0.019 | 792.2 ± 0.3 | 1.425 ± 0.015 | 784.3 ± 0.3 | 1.146 ± 0.013 | 776.3 ± 0.3 | 0.935 ± 0.011 | 768 ± 0.3 | 0.772 ± 0.009 | 759.5 ± 0.3 | 0.647 ± 0.008 | 750.6 ± 0.3 | mass density ([1]; 293.15 K): 814.7 ± 0.3 kg/m3; vapor or sublimation pressure ([1]; 328.15 K): 2.3 ± 0.1 kPa; vapor or sublimation pressure ([1]; 329.5 K): 2.5 ± 0.1 kPa; vapor or sublimation pressure ([1]; 333.15 K): 3.1 ± 0.1 kPa; vapor or sublimation pressure ([1]; 338.15 K): 4.2 ± 0.1 kPa; vapor or sublimation pressure ([1]; 341.2 K): 5 ± 0.1 kPa; vapor or sublimation pressure ([1]; 343.15 K): 5.6 ± 0.1 kPa; vapor or sublimation pressure ([1]; 348.75 K): 7.5 ± 0.1 kPa; vapor or sublimation pressure ([1]; 354.37 K): 10 ± 0.1 kPa; vapor or sublimation pressure ([1]; 362.63 K): 15 ± 0.1 kPa; vapor or sublimation pressure ([1]; 368.86 K): 20 ± 0.1 kPa; vapor or sublimation pressure ([1]; 378.2 K): 30 ± 0.1 kPa; vapor or sublimation pressure ([1]; 385.33 K): 40 ± 0.1 kPa; vapor or sublimation pressure ([1]; 391.03 K): 50 ± 0.1 kPa; vapor or sublimation pressure ([1]; 395.87 K): 60 ± 0.2 kPa; vapor or sublimation pressure ([1]; 400.1 K): 70 ± 0.2 kPa; vapor or sublimation pressure ([1]; 403.86 K): 80 ± 0.2 kPa; vapor or sublimation pressure ([1]; 407.25 K): 90 ± 0.2 kPa; vapor or sublimation pressure ([1]; 408.9 K): 95.1 ± 0.2 kPa
3 | CCCCCO [pentan-1-ol] + C=C(C)[C@H]1CC=C(C)CC1 |  |  |  |  |  |  |  |  |  |  |  |  |  |  |  |  |  |  |  | viscosity ([2]; 293.15 K): 4.03 ± 0.04 mPa·s; mass density ([2]; 293.15 K): 814.7 ± 0.3 kg/m3; viscosity ([2]; 303.15 K): 3.02 ± 0.03 mPa·s; mass density ([2]; 303.15 K): 807.2 ± 0.3 kg/m3; viscosity ([2]; 313.15 K): 2.315 ± 0.024 mPa·s; mass density ([2]; 313.15 K): 799.8 ± 0.3 kg/m3; viscosity ([2]; 323.15 K): 1.801 ± 0.019 mPa·s; mass density ([2]; 323.15 K): 792.2 ± 0.3 kg/m3; viscosity ([2]; 333.15 K): 1.425 ± 0.015 mPa·s; mass density ([2]; 333.15 K): 784.3 ± 0.3 kg/m3; viscosity ([2]; 343.15 K): 1.146 ± 0.013 mPa·s; mass density ([2]; 343.15 K): 776.3 ± 0.3 kg/m3; viscosity ([2]; 353.15 K): 0.935 ± 0.011 mPa·s; mass density ([2]; 353.15 K): 768 ± 0.3 kg/m3; viscosity ([2]; 363.15 K): 0.772 ± 0.009 mPa·s; mass density ([2]; 363.15 K): 759.5 ± 0.3 kg/m3; viscosity ([2]; 373.15 K): 0.647 ± 0.008 mPa·s; mass density ([2]; 373.15 K): 750.6 ± 0.3 kg/m3
